In PubChem BioAssay AID1845209 (Molecular Pharmacology Branch, DTP, NCI, 2023):
Where “and” joins values, the source holds several entries; their conditions need not be identical. Identical values can stand only once.

Test system: NCI-H211 tumor spheroids, viability percent test/control
Assay: Anticancer human tumor NCI-H211 cell line growth inhibition;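 note: spheroids exposed to agents for seven days before readout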
Settings: spheroids with HUVEC and MSC; for viability, T/C: stronger effect = lower value
How it was run: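 Single agents and combinations were tested on spheroids built from tumor cells plus HUVEC and hMSC, at half-log dilutions starting at or near clinical Cmax, else 10 microM; final DMSO 0.25% (v/v).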

Cc1cc(C)c(CNC(=O)c2cc(-c3ccc(CN4CCOCC4)cc3)cc3c2cnn3C2CCCC2)c(=O)[nH]1 + Cn1nnc2c(C(N)=O)ncn2c1=O
IC50 (curve of first compound, second compound 1 µM): 5.6 µM
IC50 (curve of first compound, second compound 3.16 µM): 8.08 µM
IC50 (curve of first compound, second compound 10 µM): 2.06 µM
IC50 (curve of first compound, second compound 31.6 µM): 0.081 µM
IC50 (curve of first compound, second compound 100 µM): < 0.0316 µM
viability, T/C (second compound 1 µM, first compound 0.0316 µM): 92.3%
viability, T/C (second compound 1 µM, first compound 0.1 µM): 81.4%
viability, T/C (second compound 1 µM, first compound 0.316 µM): 70%
viability, T/C (second compound 1 µM, first compound 1 µM): 70.6%
viability, T/C (second compound 1 µM, first compound 3.16 µM): 72.7%
viability, T/C (second compound 1 µM, first compound 10 µM): 32.3%
viability, T/C (second compound 3.16 µM, first compound 0.0316 µM): 95.3%
viability, T/C (second compound 3.16 µM, first compound 0.1 µM): 94.7%
viability, T/C (second compound 3.16 µM, first compound 0.316 µM): 84%
viability, T/C (second compound 3.16 µM, first compound 1 µM): 86.7%
viability, T/C (second compound 3.16 µM, first compound 3.16 µM): 71.3%
viability, T/C (second compound 3.16 µM, first compound 10 µM): 45%
viability, T/C (second compound 10 µM, first compound 0.0316 µM): 95.4%
viability, T/C (second compound 10 µM, first compound 0.1 µM): 93.2%
viability, T/C (second compound 10 µM, first compound 0.316 µM): 66.7%
viability, T/C (second compound 10 µM, first compound 1 µM): 68.7%
viability, T/C (second compound 10 µM, first compound 3.16 µM): 37.9%
viability, T/C (second compound 10 µM, first compound 10 µM): 36.8%
viability, T/C (second compound 31.6 µM, first compound 0.0316 µM): 58.4%
viability, T/C (second compound 31.6 µM, first compound 0.1 µM): 47.4%
viability, T/C (second compound 31.6 µM, first compound 0.316 µM): 35.1%
viability, T/C (second compound 31.6 µM, first compound 1 µM): 33.7%
viability, T/C (second compound 31.6 µM, first compound 3.16 µM): 10.6%
viability, T/C (second compound 31.6 µM, first compound 10 µM): 19.9%
viability, T/C (second compound 100 µM, first compound 0.0316 µM): 33.6%
viability, T/C (second compound 100 µM, first compound 0.1 µM): 21.7%
viability, T/C (second compound 100 µM, first compound 0.316 µM): 18.9%
viability, T/C (second compound 100 µM, first compound 1 µM): 16.3%
viability, T/C (second compound 100 µM, first compound 3.16 µM): 10.4%
viability, T/C (second compound 100 µM, first compound 10 µM): 7.54%

COc1cc(C)[nH]c(=O)c1CN1CCc2c(Cl)cc(C(OC)C3COC3)c(Cl)c2C1=O (configuration not stated)
viability, T/C (compound 0.0316 µM): 98.9% and 97.3% and 103%
viability, T/C (compound 0.1 µM): 92.9% and 105% and 99.4%
viability, T/C (compound 0.316 µM): 81.8% and 93.7% and 96.8%
viability, T/C (compound 1 µM): 92.6% and 78.5% and 88.5%
viability, T/C (compound 3.16 µM): 87.9% and 84.4% and 87.8%
viability, T/C (compound 10 µM): 83.7% and 89.1% and 85.7%
IC50 (curve of compound): > 10 µM

CC1COCCN1c1cc(-c2ccnn2C)c2ccnc(-c3ccn[nH]3)c2n1 (configuration not stated) + CC[C@@]1(O)C(=O)OCc2c1cc1n(c2=O)Cc2cc3c(CN(C)C)c(O)ccc3nc2-1
IC50 (curve of first compound, second compound 0.003 µM): < 0.0316 µM
IC50 (curve of first compound, second compound 0.00949 µM): < 0.0316 µM
IC50 (curve of first compound, second compound 0.03 µM): < 0.0316 µM
IC50 (curve of first compound, second compound 0.0949 µM): < 0.0316 µM
IC50 (curve of first compound, second compound 0.3 µM): < 0.0316 µM
viability, T/C (second compound 0.003 µM, first compound 0.0316 µM): 1.02%
viability, T/C (second compound 0.003 µM, first compound 0.1 µM): 1.19%
viability, T/C (second compound 0.003 µM, first compound 0.316 µM): 1.59%
viability, T/C (second compound 0.003 µM, first compound 1 µM): 0.56%
viability, T/C (second compound 0.003 µM, first compound 3.16 µM): 0.45%
viability, T/C (second compound 0.003 µM, first compound 10 µM): 0.65%
viability, T/C (second compound 0.00949 µM, first compound 0.0316 µM): 1.86%
viability, T/C (second compound 0.00949 µM, first compound 0.1 µM): 0.7%
viability, T/C (second compound 0.00949 µM, first compound 0.316 µM): 1.15%
viability, T/C (second compound 0.00949 µM, first compound 1 µM): 0.42%
viability, T/C (second compound 0.00949 µM, first compound 3.16 µM): 0.4%
viability, T/C (second compound 0.00949 µM, first compound 10 µM): 0.58%
viability, T/C (second compound 0.03 µM, first compound 0.0316 µM): 1.1%
viability, T/C (second compound 0.03 µM, first compound 0.1 µM): 1.24%
viability, T/C (second compound 0.03 µM, first compound 0.316 µM): 0.67%
viability, T/C (second compound 0.03 µM, first compound 1 µM): 1.07%
viability, T/C (second compound 0.03 µM, first compound 3.16 µM): 0.38%
viability, T/C (second compound 0.03 µM, first compound 10 µM): 0.47%
viability, T/C (second compound 0.0949 µM, first compound 0.0316 µM): 0.72%
viability, T/C (second compound 0.0949 µM, first compound 0.1 µM): 0.9%
viability, T/C (second compound 0.0949 µM, first compound 0.316 µM): 0.83%
viability, T/C (second compound 0.0949 µM, first compound 1 µM): 0.52%
viability, T/C (second compound 0.0949 µM, first compound 3.16 µM): 0.66%
viability, T/C (second compound 0.0949 µM, first compound 10 µM): 1.17%
viability, T/C (second compound 0.3 µM, first compound 0.0316 µM): 1%
viability, T/C (second compound 0.3 µM, first compound 0.1 µM): 0.97%
viability, T/C (second compound 0.3 µM, first compound 0.316 µM): 0.71%
viability, T/C (second compound 0.3 µM, first compound 1 µM): 0.83%
viability, T/C (second compound 0.3 µM, first compound 3.16 µM): 1.25%
viability, T/C (second compound 0.3 µM, first compound 10 µM): 0.81%
